Experimental data as given in patent publication JP2008297320A (priority 2000, dated 2001).

Assay: Test Example 2: persistence of Compound B concentration in mouse lung tissue (14C-labelled compounds)
Assay type: in vivo
Conditions: Balb/C mice (female), up to 72 h
[1] = intranasal 14C-labelled Compound A 0.3 and 1 μmol/kg

Row | Compound | conversion of Compound A (ester derivative) to Compound B (active form) [1] | persistence of Compound B (active form) concentration in lung tissue after administration of Compound A [1] | disappearance of Compound B from lung tissue (intranasal 14C-labelled Compound B 4 μmol/kg)
1 | CCCCCCCC(=O)OC[C@@H](O)[C@@H](OC)[C@@H]1OC(C(=O)O)=C[C@H](NC(=N)N)[C@H]1NC(C)=O [化合物A, 5-アセタミド-4-グアニジノ-9-O-オクタノイル-2、3、4、5-テトラデオキシ-7-メトキシ-D-グリセロ-D-ガラクト-ノン-2-エノピラソン酸] | 速やかに変換される | 長期にわたり持続した | –
2 | CO[C@@H]([C@@H]1OC(C(=O)O)=C[C@H](NC(=N)N)[C@H]1NC(C)=O)[C@H](O)CO [化合物B, 5-アセタミド-4-グアニジノ-2、3、4、5-テトラデオキシ-7-メトキシ-D-グリセロ-D-ガラクト-ノン-2-エノピラソン酸, reference compound] | – | – | 速やかに肺組織から消失した
